Experimental data published in ChEMBL document CHEMBL4028852, “Design of a Chemical Probe for the Bromodomain and Plant Homeodomain Finger-Containing (BRPF) Family of Proteins” (J Med Chem, 2017).

What was measured:
[1] = biological target: T1, ATPase family AAA domain-containing protein 2 (Homo sapiens, UniProt Q6PL18); test: Inhibition of human ATAD2A (981 to 1108 residues) expressed in Escherichia coli BL21 after 1 hr by BROMOscan assay
T1 sequence (Q6PL18 whole entry): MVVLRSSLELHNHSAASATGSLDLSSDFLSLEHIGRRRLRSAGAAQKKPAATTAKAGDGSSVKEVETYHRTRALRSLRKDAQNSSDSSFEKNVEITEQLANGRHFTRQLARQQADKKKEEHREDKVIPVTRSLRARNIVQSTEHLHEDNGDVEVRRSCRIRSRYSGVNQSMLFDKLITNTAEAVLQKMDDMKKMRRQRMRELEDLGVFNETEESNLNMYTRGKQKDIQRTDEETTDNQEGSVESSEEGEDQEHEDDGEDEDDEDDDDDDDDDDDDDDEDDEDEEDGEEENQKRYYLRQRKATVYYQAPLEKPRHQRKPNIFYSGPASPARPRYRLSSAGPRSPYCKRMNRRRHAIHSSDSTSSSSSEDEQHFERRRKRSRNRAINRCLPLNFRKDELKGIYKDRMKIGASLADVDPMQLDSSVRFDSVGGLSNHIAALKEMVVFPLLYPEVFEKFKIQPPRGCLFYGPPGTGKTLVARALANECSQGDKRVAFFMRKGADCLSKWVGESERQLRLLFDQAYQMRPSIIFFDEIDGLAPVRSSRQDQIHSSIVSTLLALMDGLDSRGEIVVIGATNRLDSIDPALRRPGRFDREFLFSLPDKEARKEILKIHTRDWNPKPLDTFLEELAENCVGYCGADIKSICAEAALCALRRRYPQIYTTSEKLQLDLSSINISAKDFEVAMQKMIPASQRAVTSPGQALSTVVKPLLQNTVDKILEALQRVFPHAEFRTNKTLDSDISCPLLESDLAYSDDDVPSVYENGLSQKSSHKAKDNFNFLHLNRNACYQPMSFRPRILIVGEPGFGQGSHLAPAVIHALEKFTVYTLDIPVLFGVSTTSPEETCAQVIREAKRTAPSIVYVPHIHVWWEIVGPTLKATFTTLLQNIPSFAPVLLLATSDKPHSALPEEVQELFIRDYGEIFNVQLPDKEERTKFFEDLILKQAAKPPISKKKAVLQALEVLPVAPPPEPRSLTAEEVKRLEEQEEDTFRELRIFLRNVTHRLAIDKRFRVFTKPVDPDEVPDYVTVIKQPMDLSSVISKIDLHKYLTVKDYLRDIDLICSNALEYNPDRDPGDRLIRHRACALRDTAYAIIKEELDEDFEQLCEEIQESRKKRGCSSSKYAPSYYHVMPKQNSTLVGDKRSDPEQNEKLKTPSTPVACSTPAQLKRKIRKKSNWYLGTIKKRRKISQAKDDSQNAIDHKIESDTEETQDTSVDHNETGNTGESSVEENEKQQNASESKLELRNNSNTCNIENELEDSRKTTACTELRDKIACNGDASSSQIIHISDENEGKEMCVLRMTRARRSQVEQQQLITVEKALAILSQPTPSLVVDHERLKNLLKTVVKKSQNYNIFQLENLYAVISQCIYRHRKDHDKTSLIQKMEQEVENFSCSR

Nav1.5 = Nav1.5 (Homo sapiens, UniProt Q14524); test: Inhibition of Nav1.5 (unknown origin) at 30 uM
Sequence of Nav1.5 (Q14524 whole entry): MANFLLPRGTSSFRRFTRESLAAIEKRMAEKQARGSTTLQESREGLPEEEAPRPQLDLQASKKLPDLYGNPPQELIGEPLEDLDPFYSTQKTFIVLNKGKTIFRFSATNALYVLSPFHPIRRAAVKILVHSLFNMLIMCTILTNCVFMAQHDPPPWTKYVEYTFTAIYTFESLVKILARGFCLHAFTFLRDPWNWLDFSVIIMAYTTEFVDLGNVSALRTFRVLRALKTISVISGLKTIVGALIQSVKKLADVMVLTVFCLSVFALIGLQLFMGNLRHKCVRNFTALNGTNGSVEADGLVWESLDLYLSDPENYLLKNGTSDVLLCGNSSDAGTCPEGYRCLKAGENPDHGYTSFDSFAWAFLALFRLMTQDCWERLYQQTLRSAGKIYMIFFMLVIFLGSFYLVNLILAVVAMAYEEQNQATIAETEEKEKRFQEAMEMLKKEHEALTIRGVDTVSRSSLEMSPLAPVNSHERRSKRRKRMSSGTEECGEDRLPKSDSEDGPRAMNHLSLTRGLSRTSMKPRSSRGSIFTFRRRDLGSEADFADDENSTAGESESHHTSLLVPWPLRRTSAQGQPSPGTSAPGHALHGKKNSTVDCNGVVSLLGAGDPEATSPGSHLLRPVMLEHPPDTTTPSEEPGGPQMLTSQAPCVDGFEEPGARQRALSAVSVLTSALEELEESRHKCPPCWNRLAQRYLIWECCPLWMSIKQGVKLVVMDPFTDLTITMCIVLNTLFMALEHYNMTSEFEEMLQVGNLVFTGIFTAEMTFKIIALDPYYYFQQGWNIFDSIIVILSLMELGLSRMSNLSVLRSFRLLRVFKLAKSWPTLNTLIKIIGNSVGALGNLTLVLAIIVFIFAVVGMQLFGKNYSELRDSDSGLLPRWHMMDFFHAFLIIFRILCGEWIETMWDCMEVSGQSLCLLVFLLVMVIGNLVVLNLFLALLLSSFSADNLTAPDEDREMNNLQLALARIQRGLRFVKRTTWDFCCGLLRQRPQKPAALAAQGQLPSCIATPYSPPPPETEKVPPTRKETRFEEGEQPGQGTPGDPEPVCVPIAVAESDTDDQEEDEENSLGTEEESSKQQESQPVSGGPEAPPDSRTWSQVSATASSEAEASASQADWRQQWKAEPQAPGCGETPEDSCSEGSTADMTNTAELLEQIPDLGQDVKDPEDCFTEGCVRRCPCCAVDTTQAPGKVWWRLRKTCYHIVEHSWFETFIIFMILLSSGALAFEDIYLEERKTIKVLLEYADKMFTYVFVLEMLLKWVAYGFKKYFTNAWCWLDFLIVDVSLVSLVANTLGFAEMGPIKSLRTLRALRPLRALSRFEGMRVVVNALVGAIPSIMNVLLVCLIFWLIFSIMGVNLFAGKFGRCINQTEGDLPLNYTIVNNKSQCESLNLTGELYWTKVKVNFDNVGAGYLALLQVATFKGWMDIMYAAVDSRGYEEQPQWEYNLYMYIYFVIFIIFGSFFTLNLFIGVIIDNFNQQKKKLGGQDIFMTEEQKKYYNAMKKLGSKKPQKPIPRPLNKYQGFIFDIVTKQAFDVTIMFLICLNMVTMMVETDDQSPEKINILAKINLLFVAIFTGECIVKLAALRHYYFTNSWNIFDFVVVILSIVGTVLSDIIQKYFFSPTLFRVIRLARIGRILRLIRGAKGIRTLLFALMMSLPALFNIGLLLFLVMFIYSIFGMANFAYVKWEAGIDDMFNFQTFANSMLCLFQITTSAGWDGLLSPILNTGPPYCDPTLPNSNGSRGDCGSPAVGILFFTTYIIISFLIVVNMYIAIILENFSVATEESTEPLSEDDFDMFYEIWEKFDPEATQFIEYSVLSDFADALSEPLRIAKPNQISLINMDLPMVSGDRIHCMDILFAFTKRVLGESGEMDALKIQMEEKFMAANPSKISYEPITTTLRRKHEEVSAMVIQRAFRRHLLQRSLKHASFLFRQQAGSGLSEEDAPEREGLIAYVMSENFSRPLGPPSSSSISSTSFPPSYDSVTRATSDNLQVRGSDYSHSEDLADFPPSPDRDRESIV

[2] = Apparent permeability across basolateral to apical side in human Caco2 cells at 10 uM after 2 hrs by LC-MS/MS analysis; assay type: ADME, cell-based; details: Caco-2
KCNQ1/minK = KCNQ1/minK (Homo sapiens, UniProt P51787+Q8N4C8); test: Inhibition of KCNQ1/minK (unknown origin) at 30 uM; assay type: protein-complex assay
Sequence of KCNQ1/minK (P51787 whole entry): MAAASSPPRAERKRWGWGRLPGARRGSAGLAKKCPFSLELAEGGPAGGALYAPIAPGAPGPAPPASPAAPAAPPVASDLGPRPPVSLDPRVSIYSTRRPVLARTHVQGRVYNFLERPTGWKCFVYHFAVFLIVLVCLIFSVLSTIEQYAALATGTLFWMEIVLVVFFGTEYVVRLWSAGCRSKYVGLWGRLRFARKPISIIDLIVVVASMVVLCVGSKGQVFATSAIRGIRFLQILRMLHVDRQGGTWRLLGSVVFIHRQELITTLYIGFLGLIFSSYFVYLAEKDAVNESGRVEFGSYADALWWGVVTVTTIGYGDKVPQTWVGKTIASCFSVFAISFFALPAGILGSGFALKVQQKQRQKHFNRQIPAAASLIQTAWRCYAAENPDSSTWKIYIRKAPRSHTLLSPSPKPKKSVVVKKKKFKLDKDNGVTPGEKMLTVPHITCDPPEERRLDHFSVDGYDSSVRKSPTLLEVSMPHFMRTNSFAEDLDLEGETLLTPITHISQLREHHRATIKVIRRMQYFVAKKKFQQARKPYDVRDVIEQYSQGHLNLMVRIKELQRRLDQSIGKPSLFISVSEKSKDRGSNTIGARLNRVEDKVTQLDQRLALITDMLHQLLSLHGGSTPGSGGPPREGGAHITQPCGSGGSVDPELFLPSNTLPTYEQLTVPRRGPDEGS
Sequence of KCNQ1/minK (Q8N4C8 whole entry): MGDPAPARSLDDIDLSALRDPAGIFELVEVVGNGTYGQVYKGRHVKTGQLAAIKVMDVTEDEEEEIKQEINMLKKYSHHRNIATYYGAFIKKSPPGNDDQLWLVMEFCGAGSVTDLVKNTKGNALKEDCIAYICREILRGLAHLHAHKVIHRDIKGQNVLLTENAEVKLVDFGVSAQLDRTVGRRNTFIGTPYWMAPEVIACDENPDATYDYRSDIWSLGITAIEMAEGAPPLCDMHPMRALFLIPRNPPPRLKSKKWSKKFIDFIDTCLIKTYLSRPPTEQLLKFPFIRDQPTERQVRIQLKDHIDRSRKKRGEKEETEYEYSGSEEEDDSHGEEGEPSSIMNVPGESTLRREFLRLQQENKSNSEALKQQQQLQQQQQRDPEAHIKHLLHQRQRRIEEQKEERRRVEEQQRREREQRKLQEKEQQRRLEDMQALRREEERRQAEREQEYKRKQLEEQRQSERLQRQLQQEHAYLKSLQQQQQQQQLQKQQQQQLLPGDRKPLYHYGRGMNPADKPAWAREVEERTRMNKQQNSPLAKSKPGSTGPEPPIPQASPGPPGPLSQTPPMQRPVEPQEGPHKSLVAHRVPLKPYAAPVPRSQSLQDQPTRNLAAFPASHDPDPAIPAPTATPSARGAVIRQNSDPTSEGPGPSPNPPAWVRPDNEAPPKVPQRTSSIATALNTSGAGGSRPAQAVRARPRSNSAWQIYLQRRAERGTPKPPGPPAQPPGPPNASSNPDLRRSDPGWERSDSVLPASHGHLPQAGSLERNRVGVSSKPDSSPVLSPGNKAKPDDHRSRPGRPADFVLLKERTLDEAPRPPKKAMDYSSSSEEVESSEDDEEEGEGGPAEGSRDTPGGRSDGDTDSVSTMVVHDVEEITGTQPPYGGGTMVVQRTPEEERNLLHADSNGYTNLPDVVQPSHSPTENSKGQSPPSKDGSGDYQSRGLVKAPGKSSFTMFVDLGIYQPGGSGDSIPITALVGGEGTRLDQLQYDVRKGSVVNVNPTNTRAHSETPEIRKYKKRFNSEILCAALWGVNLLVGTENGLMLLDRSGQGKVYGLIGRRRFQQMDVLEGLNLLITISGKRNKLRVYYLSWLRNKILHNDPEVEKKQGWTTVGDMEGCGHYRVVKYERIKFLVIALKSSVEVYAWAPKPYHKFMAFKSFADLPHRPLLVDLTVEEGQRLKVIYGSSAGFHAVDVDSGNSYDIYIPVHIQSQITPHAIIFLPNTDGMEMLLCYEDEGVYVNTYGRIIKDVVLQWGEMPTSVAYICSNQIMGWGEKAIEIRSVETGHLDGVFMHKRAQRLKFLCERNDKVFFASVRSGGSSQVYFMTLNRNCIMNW

NCI-H1703 = test: Inhibition of cell proliferation of human NCI-H1703 cells after 72 hrs by MTS assay; assay type: functional; details: NCI-H1703, 72 h
[3] = biological target: Bromodomain-containing protein 4 (Homo sapiens, UniProt O60885); test: Inhibition of human BRD4 bromodomain 1 (unknown origin) by Alexa Fluor 647-JQ1 probe-based fluoresence polarization competition assay
Kir2.1 = biological target: T2, Kir2.1 (Homo sapiens, UniProt P63252); test: Inhibition of Kir2.1 (unknown origin) at 30 uM
T2 sequence (P63252 whole entry): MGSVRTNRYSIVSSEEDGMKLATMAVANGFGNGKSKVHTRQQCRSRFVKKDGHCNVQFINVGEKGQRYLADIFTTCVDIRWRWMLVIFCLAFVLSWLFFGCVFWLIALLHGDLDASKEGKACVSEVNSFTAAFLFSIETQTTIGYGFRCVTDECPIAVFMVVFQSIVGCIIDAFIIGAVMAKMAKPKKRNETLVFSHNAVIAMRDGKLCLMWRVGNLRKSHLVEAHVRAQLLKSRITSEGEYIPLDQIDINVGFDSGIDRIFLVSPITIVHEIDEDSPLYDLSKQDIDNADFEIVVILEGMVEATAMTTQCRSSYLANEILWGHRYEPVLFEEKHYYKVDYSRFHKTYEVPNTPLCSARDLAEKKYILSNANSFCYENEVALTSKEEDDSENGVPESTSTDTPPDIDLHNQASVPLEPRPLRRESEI

For `COc1cc(C#N)ccc1S(=O)(=O)Nc1ccc2c(c1)cc(C)c(=O)n2C`, the IC50 [1] was greater than 100 µM, the inhibition at 30 µM (Nav1.5) was less than 40% and the Papp B→A at 2 h, 10 µM [2] was 52 ×10⁻⁶ cm/s. It also gave an inhibition at 30 µM (KCNQ1/minK) of less than 40%, a GI50 (NCI-H1703) of 10.4 µM and an IC50 [3] greater than 33 µM. For the same compound, the inhibition at 30 µM (Kir2.1) was less than 40%.
